Experimental data as given in ChEMBL document CHEMBL2434887, “Synthesis and biological evaluation of a new series of N-ylides as protein farnesyltransferase inhibitors” (Bioorg Med Chem Lett, 2013).

What was measured:
[1] = target: T1, Protein farnesyltransferase (Homo sapiens, UniProt P49354+P49356); assay: Inhibition of recombinant human farnesyltransferase using Dansyl-GCVLS as substrate measured for 15 mins by fluorimetric analysis; format: protein-complex assay
[2] = target: T1, Protein farnesyltransferase; assay: Inhibition of recombinant human farnesyltransferase using Dansyl-GCVLS as substrate at 100 uM measured for 15 mins by fluorimetric analysis relative to control; format: protein-complex assay

SMILES	IC50 [1] [µM]	inhibition [2] [%]
CCOC(=O)/C(C#N)=C/[C-](C(=O)c1cc(OC)c(OC)c(OC)c1)[n+]1cc(C)cc(C)c1	43.5	90
CCOC(=O)/C(C#N)=C/[C-](C(=O)c1cc(OC)c(OC)c(OC)c1)[n+]1ccc(N(C)C)cc1	48	73
CCOC(=O)/C(C#N)=C/[C-](C(=O)c1ccc(OC)cc1)[n+]1cc(C)cc(C)c1		49
CN(C)c1cc[n+]([C-](C=C(C#N)C#N)C(=O)c2ccc(Br)cc2)cc1	19.7	91
COc1cc(C(=O)[C-](C=C(C#N)C#N)[n+]2cc(C)cc(C)c2)cc(OC)c1OC	20.1	82
Cc1cc[n+]([C-](C=C(C#N)C#N)C(=O)c2ccccc2)cc1		29
COc1ccc(C(=O)[C-](C=C(C#N)C#N)[n+]2cc(C)cc(C)c2)cc1	27.4	75
CCOC(=O)/C(C#N)=C/[C-](C(=O)c1ccccc1)[n+]1ccc(C)cc1		45
CN(C)c1cc[n+]([C-](C=C(C#N)C#N)C(=O)c2ccc([N+](=O)[O-])cc2)cc1	28.2	88
COc1cc[n+]([C-](C=C(C#N)C#N)C(=O)c2ccc(OC)c(OC)c2)cc1	31.4	77
CN(C)c1cc[n+]([C-](C=C(C#N)C#N)C(=O)c2ccc(F)cc2)cc1	23.6	81
COc1cc(C(=O)[C-](C=C(C#N)C#N)[n+]2ccc(N(C)C)cc2)cc(OC)c1OC	15.6	93
CN(C)c1cc[n+]([C-](C=C(C#N)C#N)C(=O)N2c3ccccc3Sc3ccccc32)cc1	4.67	
CN(C)c1cc[n+]([C-](C=C(C#N)C#N)C(=O)c2ccc3c(c2)NC(=O)CO3)cc1	25.8	92
CN(C)c1cc[n+]([C-](C=C(C#N)C#N)C(=O)c2ccccc2)cc1	46.2	79
COc1ccc(C(=O)[C-](C=C(C#N)C#N)[n+]2ccc(OC)cc2)cc1	27.3	83
CCOC(=O)/C(C#N)=C/[C-](C(=O)c1ccc(OC)c(OC)c1)[n+]1ccc(OC)cc1	20.8	88

Continued, values first:

IC50 [1] [µM]	inhibition [2] [%]	SMILES
14.5	89	Cc1ccc(C(=O)[C-](C=C(C#N)C#N)[n+]2ccc(N(C)C)cc2)cc1
55.2	62	CCOC(=O)/C(C#N)=C/[C-](C(=O)c1ccc2c(c1)NC(=O)CO2)[n+]1ccc(N(C)C)cc1
43.6	65	CCOC(=O)/C(C#N)=C/[C-](C(=O)c1ccc(C)cc1)[n+]1ccc(N(C)C)cc1
31.9	100	CCOC(=O)/C(C#N)=C/[C-](C(=O)c1ccc(Cl)cc1)[n+]1ccc(N(C)C)cc1
36.4	100	CCOC(=O)/C(C#N)=C/[C-](C(=O)c1ccc(Br)cc1)[n+]1ccc(N(C)C)cc1
22.2	99	COc1ccc(C(=O)[C-](C=C(C#N)C#N)[n+]2ccc(N(C)C)cc2)cc1
46.2	69	CCOC(=O)/C(C#N)=C/[C-](C(=O)c1ccc(C#N)cc1)[n+]1ccc(N(C)C)cc1
30.9	68	CCOC(=O)/C(C#N)=C/[C-](C(=O)c1ccccc1)[n+]1ccc(N(C)C)cc1
	51	CCOC(=O)/C(C#N)=C/[C-](C(=O)c1ccc(OC)cc1)[n+]1ccc(OC)cc1
62.7	64	CCOC(=O)/C(C#N)=C/[C-](C(=O)c1ccc(OC)cc1)[n+]1ccc(N(C)C)cc1
23.9	77	CN(C)c1cc[n+]([C-](C=C(C#N)C#N)C(=O)c2ccc(C#N)cc2)cc1
62.3	64	CCOC(=O)/C(C#N)=C/[C-](C(=O)c1ccc(F)cc1)[n+]1ccc(N(C)C)cc1
12.5	95	CN(C)c1cc[n+]([C-](C=C(C#N)C#N)C(=O)c2ccc(Cl)cc2)cc1
